From US9365619B2, “IgG-binding peptide and method for detecting and purifying IgG using same” (Otsuka Chemical Co., Ltd., priority 2011, dated 2016) come the findings set out here.

SMILES strings stand for the structures. pKd: −log10 of the molar value. Where two headings read alike, the source gives them in different places. Bridge positions count the residues as written; N and C are the ends. Peptide text beside a SMILES is read from it.

The assay deals with human IgG. Kind of assay: Surface plasmon resonance (SPR) analysis of synthetic peptide binding to human IgG. The conditions noted are these: for affinity compared with the original peptide, in words: compared with GFc-C35-3/15; for affinity compared with the parent peptide, in words: compared with GFc-C35-3/15 (T7H, N8R). The method, then: In order to narrow down the amino acid region to be studied, a peptide in which one amino acid was deleted from each end of GFc-C35 (GFc-C35-2/16) and a peptide in which two amino acids were deleted from each end of CFc-C35 (GFc-C35-3/15) were synthesized. Among these peptides, based on the GFc-C35-3/15 synthetic peptide, the effect of the introduction of amino acid mutations on affinity was evaluated. That is, the contribution of each amino acid substitution to affinity was evaluated by synthesizing peptides substituted with frequently or occasionally observed amino acids obtained from the phage libraries and subjecting the resulting synthetic peptides to binding analysis.
Based on the synthetic peptide C35A, peptides substituted with amino acids observed at high frequency in the aforementioned phage libraries were synthesized by introducing amino acid mutations, and in a similar manner to the above, their binding to human IgG was analyzed by surface plasmon resonance (SPR) analysis to evaluate the contribution of each amino acid substitution to affinity.

The mark [1] stands for this setting: SPR, synthetic peptide binding to human IgG, read-out: Kd.
Setting [2] is: SPR sensorgram analysis, human IgG.
Setting [3] is: SPR sensorgram analysis, human IgG, read-out: affinity (Kd value).

The pKd is the Kd on a negative log10 scale, so that one unit is a factor of ten. On to `CC(C)C[C@@H]1NC(=O)[C@H](CC(=O)O)NC(=O)CNC(=O)[C@H](CC(N)=O)NC(=O)[C@H]([C@@H](C)O)NC(=O)[C@H](Cc2ccc(O)cc2)NC(=O)[C@H]([C@@H](C)O)NC(=O)[C@@H](NC(=O)[C@@H](N)CC(=O)O)CSSC[C@@H](C(=O)N[C@H](C(N)=O)[C@@H](C)O)NC(=O)[C@H](Cc2c[nH]c3ccccc23)NC(=O)[C@H](C(C)C)NC1=O` [GFc-C35-3/15 (N10D), DCTYTNGDLVWCT] (H-DCTYTNGDLVWCT-NH2; disulfide 2-12), for which the “affinity compared with the original peptide, in words” value was “more or less improved affinity”. For the same molecule, the pKd under setting [1] was 4.10.
On the same counts, the results for `CC(C)C[C@@H]1NC(=O)[C@H](CCC(=O)O)NC(=O)CNC(=O)[C@H](CC(N)=O)NC(=O)[C@H]([C@@H](C)O)NC(=O)[C@H](Cc2ccc(O)cc2)NC(=O)[C@H]([C@@H](C)O)NC(=O)[C@@H](NC(=O)[C@@H](N)CC(=O)O)CSSC[C@@H](C(=O)N[C@H](C(N)=O)[C@@H](C)O)NC(=O)[C@H](Cc2c[nH]c3ccccc23)NC(=O)[C@H](C(C)C)NC1=O` [GFc-C35-3/15 (N10E), DCTYTNGELVWCT] (H-DCTYTNGELVWCT-NH2; disulfide 2-12; N-terminus and C-terminus assumed) are “higher affinity than the original peptide” and 4.59.
On the same counts, the results for `CC(C)C[C@@H]1NC(=O)[C@H](CCC(N)=O)NC(=O)CNC(=O)[C@H](CC(N)=O)NC(=O)[C@H]([C@@H](C)O)NC(=O)[C@H](Cc2ccc(O)cc2)NC(=O)[C@H]([C@@H](C)O)NC(=O)[C@@H](NC(=O)[C@@H](N)CC(=O)O)CSSC[C@@H](C(=O)N[C@H](C(N)=O)[C@@H](C)O)NC(=O)[C@H](Cc2c[nH]c3ccccc23)NC(=O)[C@H](C(C)C)NC1=O` [GFc-C35-3/15 (N10Q), DCTYTNGQLVWCT] (H-DCTYTNGQLVWCT-NH2; disulfide 2-12; N-terminus and C-terminus assumed) are “almost equal affinity” and 3.80.
Take `CC(C)C[C@@H]1NC(=O)[C@H](CCCNC(=N)N)NC(=O)CNC(=O)[C@H](CC(N)=O)NC(=O)[C@H]([C@@H](C)O)NC(=O)[C@H](Cc2ccc(O)cc2)NC(=O)[C@H]([C@@H](C)O)NC(=O)[C@@H](NC(=O)[C@@H](N)CC(=O)O)CSSC[C@@H](C(=O)N[C@H](C(N)=O)[C@@H](C)O)NC(=O)[C@H](Cc2c[nH]c3ccccc23)NC(=O)[C@H](C(C)C)NC1=O` [GFc-C35-3/15 (N10R), DCTYTNGRLVWCT] (H-DCTYTNGRLVWCT-NH2; disulfide 2-12): the “affinity compared with the original peptide, in words” value is listed as “higher affinity than the original peptide”. The pKd under setting [1] is 4.38.
For `CC(C)C[C@@H]1NC(=O)[C@H](CC(N)=O)NC(=O)CNC(=O)[C@H](CC(N)=O)NC(=O)[C@H]([C@@H](C)O)NC(=O)[C@H](Cc2ccc(O)cc2)NC(=O)[C@H](C)NC(=O)[C@@H](NC(=O)[C@@H](N)CC(=O)O)CSSC[C@@H](C(=O)N[C@H](C(N)=O)[C@@H](C)O)NC(=O)[C@H](Cc2c[nH]c3ccccc23)NC(=O)[C@H](C(C)C)NC1=O` [GFc-C35-3/15 (T5A), DCAYTNGNLVWCT] (H-DCAYTNGNLVWCT-NH2; disulfide 2-12), the “affinity compared with the original peptide, in words” value was “highest affinity”. For the same molecule, under setting [1], the pKd is 4.21.
For `CC(C)C[C@@H]1NC(=O)[C@H](CCC(=O)O)NC(=O)CNC(=O)[C@H](CCCNC(=N)N)NC(=O)[C@H](Cc2c[nH]cn2)NC(=O)[C@H](Cc2ccc(O)cc2)NC(=O)[C@H](C)NC(=O)[C@@H](NC(=O)[C@@H](N)CC(=O)O)CSSC[C@@H](C(=O)N[C@H](C(N)=O)[C@@H](C)O)NC(=O)[C@H](Cc2c[nH]c3ccccc23)NC(=O)[C@H](C(C)C)NC1=O` [GFc-C35-3/15 (T5A, T7H, N8R, N10E), DCAYHRGELVWCT] (H-DCAYHRGELVWCT-NH2; disulfide 2-12), under setting [2], the “association rate constant ka” value is 4.6×10^5 M^−1S^−1 and the “dissociation rate constant kd” value is reported as 2.5×10^−2 S^−1. Further, the pKd under setting [3] is 7.27. The “fold increase in affinity (fold decrease in Kd value)” value (relative to original peptide GFc-C35-3/15) was “approximately 2400 fold”.
For the molecule `CC(C)C[C@@H]1NC(=O)[C@H](CCC(=O)O)NC(=O)CNC(=O)[C@H](CCCNC(=N)N)NC(=O)[C@H](Cc2c[nH]cn2)NC(=O)[C@H](Cc2c[nH]c3ccccc23)NC(=O)[C@H](C)NC(=O)[C@@H](NC(=O)[C@@H](N)CC(=O)O)CSSC[C@@H](C(=O)N[C@H](C(N)=O)[C@@H](C)O)NC(=O)[C@H](Cc2c[nH]c3ccccc23)NC(=O)[C@H](C(C)C)NC1=O` [GFc-C35-3/15 (T5A, Y6W, T7H, N8R, N10E), DCAWHRGELVWCT], under setting [2], the “association rate constant ka” value is 5.4×10^4 M^−1S^−1 and the “dissociation rate constant kd” value was 1.4×10^−2 S^−1. Under setting [3], the pKd is 6.59. Moreover, the “association rate constant ka relative to GFc-C35-3/15 (T5A, T7H, N8R, N10E)” value (SPR, human IgG) was “⅛”. Besides, the pKd under setting [1] is 6.59.
Regarding `CC(C)C[C@@H]1NC(=O)[C@H](CC(N)=O)NC(=O)CNC(=O)[C@H](CC(N)=O)NC(=O)[C@H]([C@@H](C)O)NC(=O)[C@H](Cc2ccc(O)cc2)NC(=O)[C@H](CO)NC(=O)[C@@H](NC(=O)[C@@H](N)CC(=O)O)CSSC[C@@H](C(=O)N[C@H](C(N)=O)[C@@H](C)O)NC(=O)[C@H](Cc2c[nH]c3ccccc23)NC(=O)[C@H](C(C)C)NC1=O` [GFc-C35-3/15 (T5S), DCSYTNGNLVWCT] (H-DCSYTNGNLVWCT-NH2; disulfide 2-12), the pKd under setting [1] was 3.92.
Still for that read-out and setting: in the case of `CC(C)C[C@@H]1NC(=O)[C@H](CC(N)=O)NC(=O)CNC(=O)[C@H](CC(N)=O)NC(=O)[C@H](Cc2c[nH]cn2)NC(=O)[C@H](Cc2ccc(O)cc2)NC(=O)[C@H]([C@@H](C)O)NC(=O)[C@@H](NC(=O)[C@@H](N)CC(=O)O)CSSC[C@@H](C(=O)N[C@H](C(N)=O)[C@@H](C)O)NC(=O)[C@H](Cc2c[nH]c3ccccc23)NC(=O)[C@H](C(C)C)NC1=O` [GFc-C35-3/15 (T7H), DCTYHNGNLVWCT] (H-DCTYHNGNLVWCT-NH2; disulfide 2-12) it was 5.52; in that of `CC(C)C[C@@H]1NC(=O)[C@H](CC(N)=O)NC(=O)CNC(=O)[C@H](CCCNC(=N)N)NC(=O)[C@H](Cc2c[nH]cn2)NC(=O)[C@H](Cc2ccc(O)cc2)NC(=O)[C@H]([C@@H](C)O)NC(=O)[C@@H](NC(=O)[C@@H](N)CC(=O)O)CSSC[C@@H](C(=O)N[C@H](C(N)=O)[C@@H](C)O)NC(=O)[C@H](Cc2c[nH]c3ccccc23)NC(=O)[C@H](C(C)C)NC1=O` [GFc-C35-3/15 (T7H, N8R), DCTYHRGNLVWCT] (H-DCTYHRGNLVWCT-NH2; disulfide 2-12), 5.96.
On to `CC(C)C[C@@H]1NC(=O)[C@H](CCC(=O)O)NC(=O)CNC(=O)[C@H](CCCNC(=N)N)NC(=O)[C@H](Cc2c[nH]cn2)NC(=O)[C@H](Cc2ccc(O)cc2)NC(=O)[C@H]([C@@H](C)O)NC(=O)[C@@H](NC(=O)[C@@H](N)CC(=O)O)CSSC[C@@H](C(=O)N[C@H](C(N)=O)[C@@H](C)O)NC(=O)[C@H](Cc2c[nH]c3ccccc23)NC(=O)[C@H](C(C)C)NC1=O` [GFc-C35-3/15 (T7H, N8R, N10E), DCTYHRGELVWCT] (H-DCTYHRGELVWCT-NH2; disulfide 2-12), for which the “affinity compared with the parent peptide, in words” value was “affinity-enhancing effect”. Further, the pKd under setting [1] was 6.57.
On the same counts, the results for `CC(C)C[C@@H]1NC(=O)[C@H](CC(N)=O)NC(=O)CNC(=O)[C@H](CCCNC(=N)N)NC(=O)[C@H](Cc2c[nH]cn2)NC(=O)[C@H](Cc2ccc(O)cc2)NC(=O)[C@H](C)NC(=O)[C@@H](NC(=O)[C@@H](N)CC(=O)O)CSSC[C@@H](C(=O)N[C@H](C(N)=O)[C@@H](C)O)NC(=O)[C@H](Cc2c[nH]c3ccccc23)NC(=O)[C@H](C(C)C)NC1=O` [GFc-C35-3/15 (T7H, N8R, T5A), DCAYHRGNLVWCT] (H-DCAYHRGNLVWCT-NH2; disulfide 2-12) are “affinity-enhancing effect” and 6.60.
The like results for `CC[C@H](C)[C@@H]1NC(=O)[C@H](CC(C)C)NC(=O)[C@H](CC(N)=O)NC(=O)CNC(=O)[C@H](CCCNC(=N)N)NC(=O)[C@H](Cc2c[nH]cn2)NC(=O)[C@H](Cc2ccc(O)cc2)NC(=O)[C@H]([C@@H](C)O)NC(=O)[C@@H](NC(=O)[C@@H](N)CC(=O)O)CSSC[C@@H](C(=O)N[C@H](C(N)=O)[C@@H](C)O)NC(=O)[C@H](Cc2c[nH]c3ccccc23)NC1=O` [GFc-C35-3/15 (T7H, N8R, V12I), DCTYHRGNLIWCT] (H-DCTYHRGNLIWCT-NH2; disulfide 2-12) were, in that order, “reduced affinity” and 5.32.
Regarding `CC(C)C[C@@H]1NC(=O)[C@H](CC(N)=O)NC(=O)CNC(=O)[C@H](CCCNC(=N)N)NC(=O)[C@H](Cc2c[nH]cn2)NC(=O)[C@H](Cc2c[nH]c3ccccc23)NC(=O)[C@H]([C@@H](C)O)NC(=O)[C@@H](NC(=O)[C@@H](N)CC(=O)O)CSSC[C@@H](C(=O)N[C@H](C(N)=O)[C@@H](C)O)NC(=O)[C@H](Cc2c[nH]c3ccccc23)NC(=O)[C@H](C(C)C)NC1=O` [GFc-C35-3/15 (T7H, N8R, Y6W), DCTWHRGNLVWCT] (H-DCTWHRGNLVWCT-NH2; disulfide 2-12), the “affinity compared with the parent peptide, in words” value is “reduced affinity”. Moreover, the pKd under setting [1] is 5.70.
In the case of `CC(C)C[C@@H]1NC(=O)[C@H](CC(N)=O)NC(=O)CNC(=O)[C@H](CC(N)=O)NC(=O)[C@H](CCCNC(=N)N)NC(=O)[C@H](Cc2ccc(O)cc2)NC(=O)[C@H]([C@@H](C)O)NC(=O)[C@@H](NC(=O)[C@@H](N)CC(=O)O)CSSC[C@@H](C(=O)N[C@H](C(N)=O)[C@@H](C)O)NC(=O)[C@H](Cc2c[nH]c3ccccc23)NC(=O)[C@H](C(C)C)NC1=O` [GFc-C35-3/15 (T7R), DCTYRNGNLVWCT] (H-DCTYRNGNLVWCT-NH2; disulfide 2-12), under setting [1], the pKd was 4.08.
